These results are taken from ChEMBL document CHEMBL3351426, “Development of new estradiol-cationic lipid hybrids: ten-carbon twin chain cationic lipid is a more suitable partner for estradiol to elicit better anticancer activity” (Eur J Med Chem, 2014).

For data set [1], the system named is MCF7. Kind of data set: Antiproliferative activity human ER-positive MCF7 cells after 2 days by MTT assay. Format: functional, cell-based. Conditions: MCF7, 48 h.
Data set [2] concerns MDA-MB-231. Kind of data set: Antiproliferative activity human ER-negative MDA-MB-231 cells after 2 days by MTT assay. Type of data set: functional, cell-based. The note with it: MDA-MB-231, 48 h. For orientation: Tetrazolium dyes change colour on reduction, which living cells bring about.
Data set [3] can be described thus: Antiproliferative activity human MIAPaCa2 cells after 2 days by MTT assay. The note with it: MIA PaCa-2, 48 h. Format: functional, cell-based.
Data set [4] has as its system CHO. Description: Antiproliferative activity against CHO cells after 2 days by MTT assay. Type of data set: cell-based. The note with it: Cricetulus griseus, 48 h.
Data set [5] in a line: Antiproliferative activity mouse NIH/3T3 cells after 2 days by MTT assay. Type of data set: cell-based. Conditions: NIH3T3, 48 h.
The nature of data set [6]: Antiproliferative activity mouse B16F10 cells after 2 days by MTT assay. The note with it: B16-F10, 48 h. Format: functional, cell-based.
The subject of data set [7] is B16-F10. Kind of data set: Antitumor activity against mouse B16F10 cells inoculated in C57BL6J mouse assessed as tumor regression at 9.15 mg/kg, ip for 9 days. Details: dose 9.15 mg/kg. Type of data set: functional, organism-based.
In data set [8] the test system is RAW264.7. Kind of data set: Induction of apoptosis in mouse RAW264.7 cells assessed as early apoptotic cells at 5 uM after 24 hrs by FITC-annexin V/PI staining based flow cytometry (RVB = 0.69%). Type of data set: cell-based. Conditions: raw264.7, 24 h.
Data set [9] can be described thus: Cell cycle arrest in mouse B16F10 cells assessed as reduction in accumulation at G0-G1 phase 5 to 10 uM after 24 hrs by PI staining based flow cytometry. Type of data set: functional. The note with it: B16-F10. Background: A flow cytometer gives signals particle by particle.
Data set [10] deals with MCF7. Kind of data set: Induction of apoptosis in human ER-positive MCF7 cells assessed as early apoptotic cells at 5 uM after 24 hrs by FITC-annexin V/PI staining based flow cytometry (RVB = 0.86%). Type of data set: functional.
In data set [11] the test system is MCF7. Description: Cell cycle arrest in human ER-positive MCF7 cells assessed as accumulation at sub-G0 phase at 5 to 10 uM after 24 hrs by PI staining based flow cytometry. Type of data set: functional.
In data set [12] the test system is RAW264.7. Description: Induction of apoptosis in mouse RAW264.7 cells assessed as necrotic cells at 5 uM after 24 hrs by FITC-annexin V/PI staining based flow cytometry (RVB = 0.29%). Type of data set: cell-based. The note with it: raw264.7, 24 h.
The test system of data set [13] is B16-F10. Description: Antitumor activity against mouse B16F10 cells expressing ER inoculated in C57BL6J mouse assessed as tumor regression at 10 mg/kg, ip for 9 days in presence of estradiol. Details: dose 10 mg/kg. Format: functional, organism-based.
Data set [14] deals with B16-F10. Kind of data set: Induction of apoptosis in mouse B16F10 cells assessed as viable cells at 5 uM after 24 hrs by FITC-annexin V/PI staining based flow cytometry (RVB = 89.58%). Type of data set: functional. Conditions: B16-F10, 24 h, read-out: Activity.
In data set [15] the test system is MDA-MB-231. Description: Induction of apoptosis in human ER-negative MDA-MB-231 cells assessed as early apoptotic cells at 5 uM after 24 hrs by FITC-annexin V/PI staining based flow cytometry (RVB = 1.15%). Format: functional.
In data set [16] the test system is B16-F10. Kind of data set: Antitumor activity against mouse B16F10 cells expressing ER inoculated in C57BL6J mouse assessed as tumor regression at 10 mg/kg, ip for 9 days. Format: functional, organism-based. Details: dose 10 mg/kg.
A short description of data set [17]: Cell cycle arrest in mouse B16F10 cells assessed as accumulation at sub-G0 phase at 5 to 10 uM after 24 hrs by PI staining based flow cytometry. Type of data set: functional. Conditions: B16-F10.
The subject of data set [18] is B16-F10. Kind of data set: Induction of apoptosis in mouse B16F10 cells assessed as early apoptotic cells at 5 uM after 24 hrs by FITC-annexin V/PI staining based flow cytometry (RVB = 0.36%). Type of data set: functional.
Data set [19] relates to RAW264.7. Kind of data set: Induction of apoptosis in mouse RAW264.7 cells assessed as late apoptotic cells at 5 uM after 24 hrs by FITC-annexin V/PI staining based flow cytometry (RVB = 0.51%). Format: cell-based. The note with it: raw264.7, 24 h.
Data set [20] deals with MCF7. Kind of data set: Induction of apoptosis in human ER-positive MCF7 cells assessed as late apoptotic cells at 5 uM after 24 hrs by FITC-annexin V/PI staining based flow cytometry (RVB = 3.68%). Format: functional.
Data set [21] deals with CHO. Kind of data set: Induction of apoptosis in CHO cells assessed as necrotic cells at 5 uM after 24 hrs by FITC-annexin V/PI staining based flow cytometry (RVB = 0.79%). Type of data set: cell-based, Cricetulus griseus. Conditions: chinese hamster.
Data set [22] has as its system MCF7. Kind of data set: Induction of apoptosis in human ER-positive MCF7 cells assessed as viable cells at 5 uM after 24 hrs by FITC-annexin V/PI staining based flow cytometry (RVB = 92.22%). Format: functional. Conditions: MCF7, 24 h, read-out: Activity.
In data set [23] the test system is CHO. Description: Induction of apoptosis in CHO cells assessed as early apoptotic cells at 5 uM after 24 hrs by FITC-annexin V/PI staining based flow cytometry (RVB = 0.00%). Format: cell-based, Cricetulus griseus. The note with it: chinese hamster.
Data set [24] deals with B16-F10. Kind of data set: Induction of apoptosis in mouse B16F10 cells assessed as necrotic cells at 5 uM after 24 hrs by FITC-annexin V/PI staining based flow cytometry (RVB = 5.12%). Type of data set: functional.
Data set [25] deals with MDA-MB-231. Description: Induction of apoptosis in human ER-negative MDA-MB-231 cells assessed as viable cells at 5 uM after 24 hrs by FITC-annexin V/PI staining based flow cytometry (RVB =95.66%). Format: functional. The note with it: MDA-MB-231, 24 h, read-out: Activity.
In data set [26] the test system is MDA-MB-231. Kind of data set: Induction of apoptosis in human ER-negative MDA-MB-231 cells assessed as late apoptotic cells at 5 uM after 24 hrs by FITC-annexin V/PI staining based flow cytometry (RVB = 0.99%). Type of data set: functional.
Data set [27] is described as follows: Induction of apoptosis in CHO cells assessed as viable cells at 5 uM after 24 hrs by FITC-annexin V/PI staining based flow cytometry (RVB = 99.21%). The note with it: chinese hamster, read-out: Activity. Format: cell-based, Cricetulus griseus.
Data set [28] deals with MDA-MB-231. Kind of data set: Induction of apoptosis in human ER-negative MDA-MB-231 cells assessed as necrotic cells at 5 uM after 24 hrs by FITC-annexin V/PI staining based flow cytometry (RVB = 2.21%). Type of data set: functional.
Data set [29] concerns CHO. Kind of data set: Induction of apoptosis in CHO cells assessed as late apoptotic cells at 5 uM after 24 hrs by FITC-annexin V/PI staining based flow cytometry (RVB = 0.00%). Format: cell-based, Cricetulus griseus. The note with it: chinese hamster.
For data set [30], the system named is B16-F10. Kind of data set: Induction of apoptosis in mouse B16F10 cells assessed as late apoptotic cells at 5 uM after 24 hrs by FITC-annexin V/PI staining based flow cytometry (RVB = 4.94%). Format: functional.
Data set [31] is described as follows: Induction of apoptosis in mouse RAW264.7 cells assessed as viable cells at 5 uM after 24 hrs by FITC-annexin V/PI staining based flow cytometry (RVB = 98.51%). Format: cell-based. Conditions: read-out: Activity.
Data set [32] has as its system B16-F10. Description: Antitumor activity against mouse B16F10 cells inoculated in C57BL6J mouse assessed as tumor regression at 10 mg/kg, ip for 9 days. Type of data set: functional, organism-based. Details: dose 10 mg/kg.
The subject of data set [33] is MCF7. Kind of data set: Cell cycle arrest in human ER-positive MCF7 cells assessed as reduction in accumulation at G0-G1 phase 5 to 10 uM after 24 hrs by PI staining based flow cytometry. Type of data set: functional.
Data set [34] relates to MCF7. Description: Induction of apoptosis in human ER-positive MCF7 cells assessed as necrotic cells at 5 uM after 24 hrs by FITC-annexin V/PI staining based flow cytometry (RVB = 3.24%). Format: functional.

Active and inactive are the calls of the source. No cut-off for these calls is given here.

For the compound `CCCCCCCCCCCC[N+](C)(CCCCCCCCCCCC)CCC[C@]1(O)CC[C@H]2[C@@H]3CCc4cc(O)ccc4[C@H]3CC[C@@]21C`, the IC50 – broadly, the midpoint of a concentration-inhibition curve – in data set [1] came out at 6.23 µM; in data set [2], 6.02 µM; in [3], 7.36 µM; in [4], 90.8 µM; in data set [5], 85.4 µM; in data set [6], 5.79 µM.

Consider `CCCCCC[N+](C)(CCCCCC)CCC[C@]1(O)CC[C@H]2[C@@H]3CCc4cc(O)ccc4[C@H]3CC[C@@]21C`, for which the IC50 in data set [1] came to 7.85 µM; in [2], 6.78 µM; in data set [3], 8.51 µM; in data set [4], 60.4 µM; in data set [5], 45.8 µM; in data set [6], 6.56 µM.

On to `CCCCCCCCCCCCCC[N+](C)(CCCCCCCCCCCCCC)CCC[C@]1(O)CC[C@H]2[C@@H]3CCc4cc(O)ccc4[C@H]3CC[C@@]21C`, for which the IC50 was 17.4 µM in data set [1]; 38.7 µM in data set [2]; 42.5 µM in data set [3]; above 100 µM in data set [4]; 80.3 µM in data set [5]; 32.3 µM in data set [6].

On to `CCCCCCCC[N+](C)(CCCCCCCC)CCC[C@]1(O)CC[C@H]2[C@@H]3CCc4cc(O)ccc4[C@H]3CC[C@@]21C`, for which the IC50 in data set [1] stood at 5.34 µM; in [2], 5.62 µM; in data set [3], 6.83 µM; in [4], 45.3 µM; in [5] it was 51 µM; in data set [6], 6.48 µM. Besides, the inhibition result in [7] was “Active”.

Consider `CC/C(=C(\c1ccccc1)c1ccc(OCCN(C)C)cc1)c1ccccc1` [TAMOXIFEN], for which the IC50 in data set [1] is 4.67 µM; in data set [2], 39 µM; in data set [3], 33.1 µM; in [4], above 100 µM; in data set [5], above 100 µM; in data set [6], 64.9 µM.

For `C[C@]12CC[C@@H]3c4ccc(O)cc4CC[C@H]3[C@@H]1CC[C@@H]2O` [ESTRADIOL], the IC50 is 27.4 µM in data set [1]; 33.5 µM in data set [2]; 42.9 µM in data set [3]; above 100 µM in [4]; above 100 µM in [5]; 39.8 µM in data set [6].

Consider `CCCCCCCCCC[N+](C)(CCCCCCCCCC)CCC[C@]1(O)CC[C@H]2[C@@H]3CCc4cc(O)ccc4[C@H]3CC[C@@]21C.[Cl-]`, for which the Activity in data set [8] was found to be 0.55%; in data set [10], 1.62%; in data set [12] it was 0.1%; in data set [15] it was 21.65%; in data set [18], 2.53%; in data set [19] it was 0.27%. Besides, the Activity in data set [20] came out at 45.94%; in [21], 0.86%; in [23], 0.56%; in [24] it was 2.87%; in [26] it was 50.63%; in data set [28], 3.39%. For the same compound, the values for the Activity in [29], in data set [30] and in [34] were 0.23%, 67.86% and 1.4%, respectively. Moreover, the IC50 amounted to 1.36 µM in data set [1]; 1.14 µM in [2]; 0.46 µM in data set [3]; 81.7 µM in [4]; 47.7 µM in [5]; 0.5 µM in data set [6]. In addition, the result in [9], in data set [11], in data set [17] and in data set [33] was Active. Further, in data set [13], the inhibition entry is “inactive”. The viability at 5 µM in data set [14] was 26.7%; in data set [22], 51%; in data set [25], 24.3%. Further, the inhibition entry in [16] and in data set [32] was “Active” throughout. The viability at 24 h, 5 µM is 98.3% in [27] and 99.1% in data set [31].
